ChEMBL document CHEMBL4610025, “Discovery of a follistatin-derived myostatin inhibitory peptide” (Bioorg Med Chem Lett, 2020)
Calls of active or inactive are those of the source. The calls are words filed in the database; no cut-off is given here. Residues, ends and D or L forms follow the SMILES beside them.

Biological target: Growth/differentiation factor 8 (Homo sapiens) (UniProt O14793)
Experiment: Inhibition of myostatin (unknown origin) expressed in HEK293 cells at 10 uM incubated for 4 hrs by dual luciferase reporter gene assay
Assay type: cell-based

Chain of Growth/differentiation factor 8 (Homo sapiens) (O14793 267-375 limits assumed): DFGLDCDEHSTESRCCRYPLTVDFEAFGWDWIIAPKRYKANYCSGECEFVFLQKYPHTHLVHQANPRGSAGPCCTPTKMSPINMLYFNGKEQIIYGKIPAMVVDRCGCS

| SMILES | inhibition |
| --- | --- |
| CC[C@H](C)[C@H](NC(=O)[C@H](CCSC)NC(=O)[C@H](Cc1c[nH]c2ccccc12)NC(=O)[C@H](CCCCN)NC(=O)[C@H](Cc1ccccc1)NC(=O)[C@H](CC(C)C)NC(=O)[C@@H](NC(=O)[C@H](C)NC(=O)[C@H](CC(=O)O)NC(=O)[C@H](CC(N)=O)NC(=O)[C@@H](N)C(C)C)[C@@H](C)O)C(=O)N[C@@H](Cc1ccccc1)C(=O)N[C@@H](CC(N)=O)C(=O)NCC(N)=O (H-VNDATLFKWMIFNG-NH2) | Active |
| CC[C@H](C)[C@H](NC(=O)[C@H](CCSC)NC(=O)[C@H](C)NC(=O)[C@H](CCCCN)NC(=O)[C@H](Cc1ccccc1)NC(=O)[C@H](CC(C)C)NC(=O)[C@@H](NC(=O)[C@H](CC(N)=O)NC(=O)[C@H](CC(=O)O)NC(=O)[C@H](CC(N)=O)NC(=O)[C@@H](N)C(C)C)[C@@H](C)O)C(=O)N[C@@H](Cc1ccccc1)C(=O)N[C@@H](CC(N)=O)C(=O)NCC(N)=O (H-VNDNTLFKAMIFNG-NH2) | inactive |
| CC[C@H](C)[C@H](NC(=O)[C@H](CCSC)NC(=O)[C@H](Cc1c[nH]c2ccccc12)NC(=O)[C@H](CCCCN)NC(=O)[C@H](Cc1ccccc1)NC(=O)[C@H](CC(C)C)NC(=O)[C@@H](NC(=O)[C@H](CC(N)=O)NC(=O)[C@H](CC(=O)O)NC(=O)[C@H](CC(N)=O)NC(=O)[C@@H](NC(=O)[C@H](CC(=O)O)NC(=O)[C@H](CCC(=O)O)NC(=O)[C@H](CCC(=O)O)NC(=O)[C@@H](NC(=O)[C@@H](N)Cc1c[nH]c2ccccc12)[C@@H](C)O)C(C)C)[C@@H](C)O)C(=O)N[C@@H](Cc1ccccc1)C(=O)N[C@@H](CC(N)=O)C(=O)NCC(N)=O (H-WTEEDVNDNTLFKWMIFNG-NH2) | inactive |
| CC[C@H](C)[C@H](NC(=O)[C@H](CCSC)NC(=O)[C@H](Cc1c[nH]c2ccccc12)NC(=O)[C@H](CCCCN)NC(=O)[C@H](Cc1ccccc1)NC(=O)[C@H](CC(C)C)NC(=O)[C@@H](NC(=O)[C@H](CC(N)=O)NC(=O)[C@H](C)NC(=O)[C@H](CC(N)=O)NC(=O)[C@@H](N)C(C)C)[C@@H](C)O)C(=O)N[C@@H](Cc1ccccc1)C(=O)N[C@@H](CC(N)=O)C(=O)NCC(N)=O (H-VNANTLFKWMIFNG-NH2) | Active |
| CC[C@H](C)[C@H](NC(=O)[C@H](CCSC)NC(=O)[C@H](Cc1c[nH]c2ccccc12)NC(=O)[C@H](CCCCN)NC(=O)[C@H](Cc1ccccc1)NC(=O)[C@H](CC(C)C)NC(=O)[C@@H](NC(=O)[C@H](CC(N)=O)NC(=O)[C@H](CC(=O)O)NC(=O)[C@@H](N)CC(N)=O)[C@@H](C)O)C(=O)N[C@@H](Cc1ccccc1)C(=O)N[C@@H](CC(N)=O)C(=O)NCC(N)=O (H-NDNTLFKWMIFNG-NH2) | inactive |
| CC[C@H](C)[C@H](NC(=O)[C@H](CCSC)NC(=O)[C@H](Cc1c[nH]c2ccccc12)NC(=O)[C@H](CCCCN)NC(=O)[C@H](Cc1ccccc1)NC(=O)[C@H](CC(C)C)NC(=O)[C@@H](NC(=O)[C@H](CC(N)=O)NC(=O)[C@H](CC(=O)O)NC(=O)[C@H](CC(N)=O)NC(=O)[C@H](C)N)[C@@H](C)O)C(=O)N[C@@H](Cc1ccccc1)C(=O)N[C@@H](CC(N)=O)C(=O)NCC(N)=O (H-ANDNTLFKWMIFNG-NH2) | inactive |
| CC[C@H](C)[C@H](NC(=O)[C@H](CCSC)NC(=O)[C@H](Cc1c[nH]c2ccccc12)NC(=O)[C@H](CCCCN)NC(=O)[C@H](Cc1ccccc1)NC(=O)[C@H](CC(C)C)NC(=O)[C@@H](NC(=O)[C@H](CC(N)=O)NC(=O)[C@H](CC(=O)O)NC(=O)[C@H](CC(N)=O)NC(=O)[C@@H](N)C(C)C)[C@@H](C)O)C(=O)N[C@@H](Cc1ccccc1)C(=O)N[C@@H](C)C(=O)NCC(N)=O (H-VNDNTLFKWMIFAG-NH2) | inactive |
| CC[C@H](C)[C@H](NC(=O)[C@H](CCSC)NC(=O)[C@H](Cc1c[nH]c2ccccc12)NC(=O)[C@H](CCCCN)NC(=O)[C@H](Cc1ccccc1)NC(=O)[C@H](CC(C)C)NC(=O)[C@@H](NC(=O)[C@H](CC(N)=O)NC(=O)[C@H](CC(=O)O)NC(=O)[C@H](CC(N)=O)NC(=O)[C@@H](N)C(C)C)[C@@H](C)O)C(=O)N[C@@H](C)C(=O)N[C@@H](CC(N)=O)C(=O)NCC(N)=O (H-VNDNTLFKWMIANG-NH2) | inactive |
| CSCC[C@H](NC(=O)[C@H](Cc1c[nH]c2ccccc12)NC(=O)[C@H](CCCCN)NC(=O)[C@H](Cc1ccccc1)NC(=O)[C@H](CC(C)C)NC(=O)[C@@H](NC(=O)[C@H](CC(N)=O)NC(=O)[C@H](CC(=O)O)NC(=O)[C@H](CC(N)=O)NC(=O)[C@@H](N)C(C)C)[C@@H](C)O)C(=O)N[C@@H](C)C(=O)N[C@@H](Cc1ccccc1)C(=O)N[C@@H](CC(N)=O)C(=O)NCC(N)=O (H-VNDNTLFKWMAFNG-NH2) | inactive |
| CC[C@H](C)[C@H](NC(=O)[C@H](CCSC)NC(=O)[C@H](Cc1c[nH]c2ccccc12)NC(=O)[C@H](CCCCN)NC(=O)[C@H](Cc1ccccc1)NC(=O)[C@H](CC(C)C)NC(=O)[C@@H](NC(=O)[C@H](CC(N)=O)NC(=O)[C@H](CC(=O)O)NC(=O)[C@H](CC(N)=O)NC(=O)[C@@H](N)C(C)C)[C@@H](C)O)C(=O)N[C@@H](Cc1ccccc1)C(=O)N[C@@H](CC(N)=O)C(N)=O (H-VNDNTLFKWMIFN-NH2) | inactive |
| CC[C@H](C)[C@H](NC(=O)[C@H](CCSC)NC(=O)[C@H](Cc1c[nH]c2ccccc12)NC(=O)[C@H](CCCCN)NC(=O)[C@H](Cc1ccccc1)NC(=O)[C@H](CC(C)C)NC(=O)[C@@H](NC(=O)[C@H](CC(N)=O)NC(=O)[C@H](CC(=O)O)NC(=O)[C@@H](N)CC(N)=O)[C@@H](C)O)C(=O)N[C@@H](Cc1ccccc1)C(=O)N[C@@H](CC(N)=O)C(N)=O (H-NDNTLFKWMIFN-NH2) | Active |
| CC[C@H](C)[C@H](NC(=O)[C@H](CCSC)NC(=O)[C@H](Cc1c[nH]c2ccccc12)NC(=O)[C@H](CCCCN)NC(=O)[C@H](Cc1ccccc1)NC(=O)[C@H](CC(C)C)NC(=O)[C@@H](NC(=O)[C@H](CC(N)=O)NC(=O)[C@H](CC(=O)O)NC(=O)[C@H](CC(N)=O)NC(=O)[C@@H](NC(=O)[C@H](CC(=O)O)NC(=O)[C@H](CCC(=O)O)NC(=O)[C@@H](N)CCC(=O)O)C(C)C)[C@@H](C)O)C(=O)N[C@@H](Cc1ccccc1)C(=O)N[C@@H](CC(N)=O)C(=O)NCC(N)=O (H-EEDVNDNTLFKWMIFNG-NH2) | inactive |
| CC[C@H](C)[C@H](NC(=O)[C@H](CCSC)NC(=O)[C@H](Cc1c[nH]c2ccccc12)NC(=O)[C@H](CCCCN)NC(=O)[C@H](C)NC(=O)[C@H](CC(C)C)NC(=O)[C@@H](NC(=O)[C@H](CC(N)=O)NC(=O)[C@H](CC(=O)O)NC(=O)[C@H](CC(N)=O)NC(=O)[C@@H](N)C(C)C)[C@@H](C)O)C(=O)N[C@@H](Cc1ccccc1)C(=O)N[C@@H](CC(N)=O)C(=O)NCC(N)=O (H-VNDNTLAKWMIFNG-NH2) | inactive |
| CC[C@H](C)[C@H](NC(=O)[C@H](CCSC)NC(=O)[C@H](Cc1c[nH]c2ccccc12)NC(=O)[C@H](CCCCN)NC(=O)[C@H](Cc1ccccc1)NC(=O)[C@H](CC(C)C)NC(=O)[C@H](C)NC(=O)[C@H](CC(N)=O)NC(=O)[C@H](CC(=O)O)NC(=O)[C@H](CC(N)=O)NC(=O)[C@@H](N)C(C)C)C(=O)N[C@@H](Cc1ccccc1)C(=O)N[C@@H](CC(N)=O)C(=O)NCC(N)=O (H-VNDNALFKWMIFNG-NH2) | inactive |
